Measurements: patent US20240148821A1, “PHARMACEUTICAL USE OF CYCLIC PEPTIDE COMPOUND” (CHUGAI SEIYAKU KABUSHIKI KAISHA, priority 2021, published 2024)
Bridge positions count the residues as written; N and C are the ends. Square brackets hold non-standard residues; d marks the D form. Peptide text beside a SMILES is read from it. * marks the point of attachment. hPhe(3-Cl-4-CF3) = N[C@@H](CCc1ccc(C(F)(F)F)c(Cl)c1)C(=O)O; hPhe(3-F,4-CF3) = N[C@@H](CCc1ccc(C(F)(F)F)c(F)c1)C(=O)O; Phe(2-F,5-Br) = N[C@@H](Cc1cc(Br)ccc1F)C(=O)O; NMePhe(4-Me) = CN[C@@H](Cc1ccc(C)cc1)C(=O)O; NMeNva(5,5-F2) = CN[C@@H](CCC(F)F)C(=O)O; NMe3Pal = CN[C@@H](Cc1cccnc1)C(=O)O; NMeY = CN[C@@H](Cc1ccc(O)cc1)C(=O)O; NMeCha = CN[C@@H](CC1CCCCC1)C(=O)O; NMeChg = CN[C@H](C(=O)O)C1CCCCC1; NMeI = CC[C@H](C)[C@H](NC)C(=O)O; NMeD = CN[C@@H](CC(=O)O)C(=O)O; NMeL = CN[C@@H](CC(C)C)C(=O)O; NMeV = CN[C@H](C(=O)O)C(C)C; NMeAbu = CC[C@H](NC)C(=O)O; Pip = O=C(O)[C@@H]1CCCCN1; NMeA = CN[C@@H](C)C(=O)O; NMeAib = CNC(C)(C)C(=O)O; Nle = CCCC[C@H](N)C(=O)O; Piperidide = C1CCN(*)CC1; Ac5c = NC1(C(=O)O)CCCC1; Aze = O=C(O)[C@@H]1CCN1; Aib = CC(C)(N)C(=O)O; Sar = CNCC(=O)O

These molecules were tested on Human pancreatic cancer cell line AsPC-1 (G12D mutation Kras) (assay: AsPC-1 cell growth inhibition (AsPC-1 CGI)). Conditions: read-out: AsPC-1 cell growth inhibition, 50% growth inhibitory concentration (IC50 value); 96 hours, CellTiter-Glo, values classified in ranges.
Format: cell-based
Method: Test compounds were serially dilated with dimethyl sulfoxide, and 200 nL was then dispensed to a U-bottom 96-well plate using Labcyte Echo. […] The cell suspension was dispensed to a. plate containing a test compound at 100 μL per well and incubated at 37° C. in a 5% carbon dioxide gas incubator. 96 hours later, 80 μL of CellTiter-Glo (Promega) was added to each well and fluorescence was measured.

SMILES	IC50
CCCC[C@@H]1NC(=O)[C@H](Cc2cc(Br)ccc2F)NC(=O)CN(C)C(=O)[C@H](Cc2ccc(OC)cc2)N(C)C(=O)[C@@H]2CCN2C(=O)[C@H](C)N(C)C(=O)[C@H]([C@@H](C)CC)NC(=O)[C@H](CC)N(C)C(=O)C[C@@H](C(=O)N2CCCCC2)N(C)C(=O)[C@H](CC(C)C)NC(=O)C(C)(C)N(C)C1=O [Compound 1177] ([NMeAbu]I[NMeA][Aze][NMeY](Me)[Sar][Phe(2-F,5-Br)][Nle][NMeAib]L[NMeD]-Piperidide; lactam N-11)	> 0.5 µM
CC[C@H](C)[C@@H]1NC(=O)[C@H](CC(C)C)N(C)C(=O)C[C@@H](C(=O)N2CCCCC2)N(C)C(=O)[C@H](C2CCCCC2)N(C)C(=O)C2(CCCC2)NC(=O)[C@H](Cc2cccnc2)N(C)C(=O)[C@H](CCc2ccc(C(F)(F)F)c(Cl)c2)NC(=O)CN(C)C(=O)[C@H](CC2CCCCC2)N(C)C(=O)CN(C)C(=O)CN(C)C1=O [Compound 63] ([NMeL]I[Sar][Sar][NMeCha][Sar][hPhe(3-Cl-4-CF3)][NMe3Pal][Ac5c][NMeChg][NMeD]-Piperidide; lactam N-11)	> 0.5 µM
CC[C@H](C)[C@@H]1NC(=O)[C@H](CC(C)C)N(C)C(=O)C[C@@H](C(=O)N2CCCCC2)N(C)C(=O)[C@H](C(C)C)N(C)C(=O)C(C)(C)NC(=O)[C@@H]2CCCN2C(=O)[C@H](CCc2ccc(C(F)(F)F)c(F)c2)NC(=O)CN(C)C(=O)[C@H](CC2CCCCC2)N(C)C(=O)CN(C)C(=O)CN(C)C1=O [Compound 522] ([NMeL]I[Sar][Sar][NMeCha][Sar][hPhe(3-F,4-CF3)]P[Aib][NMeV][NMeD]-Piperidide; lactam N-11)	> 0.5 µM
CC[C@H](C)[C@@H]1NC(=O)[C@H](CC(C)C)N(C)C(=O)C[C@@H](C(=O)N2CCCCC2)N(C)C(=O)[C@H](CCC(F)F)N(C)C(=O)C2(CCCC2)NC(=O)[C@@H]2CCCN2C(=O)[C@H](CCc2ccc(C(F)(F)F)c(Cl)c2)NC(=O)CN(C)C(=O)[C@H](CC2CCCCC2)N(C)C(=O)CN(C)C(=O)CN(C)C1=O [Compound 1782] ([NMeL]I[Sar][Sar][NMeCha][Sar][hPhe(3-Cl-4-CF3)]P[Ac5c][NMeNva(5,5-F2)][NMeD]-Piperidide; lactam N-11)	> 0.5 µM
CC[C@H](C)[C@@H]1NC(=O)[C@@H]2CCCCN2C(=O)C[C@@H](C(=O)N2CCCCC2)N(C)C(=O)[C@H](C(C)C)N(C)C(=O)C2(CCCC2)NC(=O)[C@@H]2CCCN2C(=O)[C@H](CCc2ccc(C(F)(F)F)c(F)c2)NC(=O)CN(C)C(=O)[C@H](CC2CCCCC2)N(C)C(=O)CN(C)C(=O)CN(C)C1=O [Compound 670] ([Pip]I[Sar][Sar][NMeCha][Sar][hPhe(3-F,4-CF3)]P[Ac5c][NMeV][NMeD]-Piperidide; lactam N-11)	> 0.5 µM
CC[C@H](C)[C@@H]1NC(=O)[C@H](CC(C)C)N(C)C(=O)C[C@@H](C(=O)N(C)C)N(C)C(=O)[C@H]([C@@H](C)CC)N(C)C(=O)C2(CCCC2)NC(=O)[C@@H](C)NC(=O)[C@H](CCc2ccc(C(F)(F)F)c(Cl)c2)NC(=O)CN(C)C(=O)[C@H](Cc2ccc(C)cc2)N(C)C(=O)[C@@H]2CCN2C(=O)[C@H](C)N(C)C1=O [Compound 67] ([NMeL]I[NMeA][Aze][NMePhe(4-Me)][Sar][hPhe(3-Cl-4-CF3)][dA][Ac5c][NMeI][NMeD]-NMe2; lactam N-11)	> 0.5 µM
CC[C@H](C)[C@@H]1NC(=O)[C@H](CC(C)C)N(C)C(=O)C[C@@H](C(=O)N2CCCCC2)N(C)C(=O)[C@H](C2CCCCC2)N(C)C(=O)C2(CCCC2)NC(=O)[C@H](CC(=O)O)N(C)C(=O)[C@H](CCc2ccc(C(F)(F)F)c(Cl)c2)NC(=O)CN(C)C(=O)[C@H](CC2CCCCC2)N(C)C(=O)CN(C)C(=O)CN(C)C1=O [Compound 688] ([NMeL]I[Sar][Sar][NMeCha][Sar][hPhe(3-Cl-4-CF3)][NMeD][Ac5c][NMeChg][NMeD]-Piperidide; lactam N-11)	> 0.5 µM
